This is an account of results in publication PMC8692993, “PPARα and PPARγ activation is associated with pleural mesothelioma invasion but therapeutic inhibition is ineffective” (iScience, 2021).

Data set [1] in a line: Protein binding by rapid equilibrium dialysis, mouse plasma. It counts as in vitro ADME. As to conditions: corrected from 10% diluted plasma, mean ± SD, n=3. How it is done:
Protein binding was determined via rapid equilibrium dialysis (RED) with incorporation of a pre-saturation step ([Charman et al., 2020]). The pre-incubation process involved RED system being exposed to fresh aqueous solutions of GW6471 (400 nM) for three periods (including one overnight). For the protein binding determination, GW6471 was spiked into the diluted mouse plasma (10% (v/v); in PBS) or DMEM/F-12 media containing 5% dextran-coated charcoal-stripped FCS (at 2000 nM) and dialysed against protein-free PBS (for plasma) or base media (DMEM/F-12) containing GW6471 at 40 nM for 24 h at 37°C under ambient atmosphere on a plate shaker. Concentrations of GW6471 in dialysate and donor samples collected at the end of the dialysis period were determined via LC–MS.
Compound binding was assessed on the basis of the measured concentrations in dialysate and donor samples at the end of the dialysis period.
Based on the post-dialysis measured concentrations in donor (Ctotal_post_dialysis) and dialysate (Cunbound) for each RED unit, the unbound fraction of compound in assay matrix (fu_diluted) was calculated according to Equation 1 below:(Equation 1) fu=Cunbound/Ctotal_post−dialysis
For media, the value for fu calculated according to Equation 1 above was used without further correction. […]
In general terms: In equilibrium dialysis only unbound substance equilibrates across the membrane.

Data set [2] relates to head and neck paraganglioma. Details: method as in Florio et al., 2017. As to conditions: 24 μM, by cell-cycle arrest and caspase-dependent apoptosis; ref Florio et al., 2017; cited from earlier work.
In another data set the target is T1, PPARγ (Homo sapiens, UniProt P37231).
T1 sequence (P37231 238-503 limits assumed): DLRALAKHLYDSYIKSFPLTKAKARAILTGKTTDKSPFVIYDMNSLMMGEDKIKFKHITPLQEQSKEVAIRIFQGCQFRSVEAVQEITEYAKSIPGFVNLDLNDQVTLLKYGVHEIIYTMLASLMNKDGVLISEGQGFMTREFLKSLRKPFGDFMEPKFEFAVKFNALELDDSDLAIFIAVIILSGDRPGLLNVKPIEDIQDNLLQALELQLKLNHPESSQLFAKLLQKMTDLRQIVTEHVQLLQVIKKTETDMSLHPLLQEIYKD
On the set-up: expressed in transfected cells; host or cells: HG5LN (HeLa-derived, GAL4RE-luciferase); method as in Goldstein et al., 2017. As to conditions: an IC50 value was not reported, ref Goldstein et al., 2017, read-out: Functionality, Lit. IC50; cited from earlier work.

Another data set concerns the target T2, PPARα (Homo sapiens, UniProt Q07869).
T2 sequence (Q07869 239-466 limits assumed): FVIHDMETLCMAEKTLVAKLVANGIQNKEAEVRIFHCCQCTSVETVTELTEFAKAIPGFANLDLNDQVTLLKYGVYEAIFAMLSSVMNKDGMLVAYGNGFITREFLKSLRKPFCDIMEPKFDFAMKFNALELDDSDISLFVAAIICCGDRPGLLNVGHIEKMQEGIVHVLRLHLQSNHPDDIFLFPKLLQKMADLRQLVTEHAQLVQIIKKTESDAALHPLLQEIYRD
Put plainly: HG5LN reporter cell assay, PPARα-mediated transcription. In kind it is cell-based. Details: expressed in transfected cells; host or cells: HG5LN (HeLa-derived, GAL4RE-luciferase). From the text: Nuclear receptors, including PPARα and γ, are ligand-inducible transcription factors that form heterodimers with retinoid X receptors and bind to specific DNA sites located in the enhancer/promoter region of target genes, releasing co-repressors and/or recruiting co-activators ([Wang, 2010]). We therefore assessed the functional consequences of the ligands on PPARα and γ-mediated transcriptional activation in reporter cell lines. These cell lines were generated as previously reported by a two-step transfection procedure ([Seimandi et al., 2005]). First, a stable cell line, HG5LN, expressing the reporter gene (GAL4RE-luciferase) was developed from the HeLa cell line. These cells were then transfected with a plasmid expressing the C-terminal ligand-binding domain of PPARα or γ fused to GAL4 DNA-binding domain. The parental HG5LN cells were used as a control to test non-specific modulation of luciferase expression by the small molecules investigated (Figure S4A). The HG5LN PPAR reporter cells therefore allow comparison of the functional activity at, and selectivity of different ligands for, PPARα and γ. […] As expected ([Abu Aboud et al., 2015]), GW6471 potently antagonized PPARα (Figure 4E and Table 1).
A transfected […] cell line HG5LN was used ([Balaguer et al., 2001]). These cells were cultured in Dubecco's modified Eagle's medium (DMEM-F12 Thermo Fisher Scientific) with phenol red and supplemented with 5% foetal calf serum, incubated at 37°C in a 5% CO2/95% air-humidified atmosphere. Luciferase assays were performed in DMEM-F12 (Thermo Fisher Scientific) without phenol red and supplemented with 5% dextran-coated charcoal-stripped FCS (test culture medium), puromycin (Thermo Fisher Scientific) 0.5 μg/mL and geneticin (Thermo Fisher Scientific) 1 mg/mL. Cells were seeded at a density of 5 x 10^4 cells/well and incubated for 8 h at 37°C in a 96-well plate white opaque tissue culture plates (Becton-Dickinson). Tested compounds were added in serial dilutions and incubated for 16 h at 37°C. After incubation, the medium containing the effectors was carefully removed and replaced by culture medium containing 3 x 10^−4 mol/L luciferin (Sigma Chemicals). After 5 min incubation at room temperature, the 96-well plate was then read with a Microbeta Wallac luminometer and the luminescence was measured in the living cells for 2 s. All experiments were performed in quadruplicate.

Take `CCC(=O)NC[C@H](Cc1ccc(OCCc2nc(-c3ccccc3)oc2C)cc1)N/C(C)=C\C(=O)c1ccc(C(F)(F)F)cc1` [GW6471]: the “Fraction unbound (fu)” value in data set [1] amounted to 0.00059 ± 0.00005. In addition, the “Cell viability and growth” value in data set [2] is “reduced cell viability and growth”. In addition, the IC50 (in general, the concentration that inhibits the measured activity by half) at PPARγ is less than 1000 nM; against PPARα (inhibition of agonism by 10 nM GW7647, 16 h incubation, mean of 3 experiments ± SEM) it was 254 ± 96 nM. Moreover, the “Functionality, Type” value on PPARα was “antagonist”.
